Measurements reported in EP4603105A1, “PHARMACEUTICAL COMPOSITION CONTAINING CYCLIC COMPOUND HAVING SELECTIVE KRAS INHIBITORY EFFECT AGAINST HRAS AND NRAS” (CHUGAI SEIYAKU KABUSHIKI KAISHA, priority 2022, dated 2024).
Where a SMILES comes first, the peptide text is derived from it. Bridges are numbered along the chain shown (N, C = ends). [ ]: non-standard residue; d: D form. The star is where a group is joined. hPhe(3,5-F2-4-CF3) = N[C@@H](CCc1cc(F)c(C(F)(F)F)c(F)c1)C(=O)O; hPhe(3-Cl-4-CF3) = N[C@@H](CCc1ccc(C(F)(F)F)c(Cl)c1)C(=O)O; NPrPhe(4-CF3) = CCCN[C@@H](Cc1ccc(C(F)(F)F)cc1)C(=O)O; NEtPhe(4-Me) = CCN[C@@H](Cc1ccc(C)cc1)C(=O)O; NMeGly(cPent) = CN[C@H](C(=O)O)C1CCCC1; Pro(4,4-F2) = O=C(O)[C@@H]1CC(F)(F)CN1; Hyp = O=C(O)[C@@H]1C[C@@H](O)CN1; NMeD = CN[C@@H](CC(=O)O)C(=O)O; NMeL = CN[C@@H](CC(C)C)C(=O)O; Iva = CC[C@](C)(N)C(=O)O; Morpholide = C1CN(*)CCO1; NMeA = CN[C@@H](C)C(=O)O; Ac5c = NC1(C(=O)O)CCCC1; Aze = O=C(O)[C@@H]1CCN1; NEtG = CCNCC(=O)O; Sar = CNCC(=O)O

Tests used:
[1] = target: HRAS wild-type protein (Homo sapiens, UniProt P01112); assay: Binding to HRAS by surface plasmon resonance (SPR), KD and KD ratio to KRAS
Method in brief: (§1)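 GDP-bound biotin-Avi RAS captured at ~100–300 RU, 30°C, pH 7.4 HBS containing 10 µM GDP, 10 mM MgCl2, 1 mM DTT, 0.01% Tween 20 and 4% DMSO. KD by 1:1 fitting.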

[2] = tested on: human lung cancer strain NCI-H441; type: cell-based
Method in brief: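 Readout: […] after the ATP-based reagent. Compound: serial dilutions in dimethyl sulfoxide.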

[3] = target: GDP-bound NRAS wild-type protein (Homo sapiens, UniProt P01111); assay: Binding to NRAS by surface plasmon resonance (SPR), KD and KD ratio to KRAS
Method in brief: as §1

[4] = ratio of the KD value with respect to HRAS wild-type protein to the KD value with respect to KRAS
[5] = ratio of the KD value with respect to GDP-bound NRAS wild-type protein to the KD value with respect to KRAS
[6] = ratio of KD for HRAS wild-type protein to KD for KRAS
[7] = ratio of KD for GDP-bound NRAS wild-type protein to KD for KRAS

Sequence of GDP-bound NRAS wild-type protein (P01111 whole entry): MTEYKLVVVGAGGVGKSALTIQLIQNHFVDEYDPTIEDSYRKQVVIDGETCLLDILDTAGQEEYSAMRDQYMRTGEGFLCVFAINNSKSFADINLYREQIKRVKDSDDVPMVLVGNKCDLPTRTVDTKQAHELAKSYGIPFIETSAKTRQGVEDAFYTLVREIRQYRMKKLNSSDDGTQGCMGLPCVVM
Sequence of HRAS wild-type protein (P01112 whole entry): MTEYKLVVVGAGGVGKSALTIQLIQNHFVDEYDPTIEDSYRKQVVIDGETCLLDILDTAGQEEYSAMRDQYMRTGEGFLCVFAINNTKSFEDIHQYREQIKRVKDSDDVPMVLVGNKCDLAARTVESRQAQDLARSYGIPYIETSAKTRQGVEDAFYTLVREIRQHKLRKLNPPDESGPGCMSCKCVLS

Row | SMILES | HRAS /KRAS [1, 4] | IC50 [2] | NRAS /KRAS [3, 5] | HRAS /KRAS [1, 6] | NRAS /KRAS [3, 7] | HRAS /KRAS ([1]; ratio of KD value for HRAS wild-type protein to KD value for KRAS (SPR)) | NRAS /KRAS ([3]; ratio of KD value for GDP-bound NRAS wild-type protein to KD value for KRAS (SPR))
1 | C#CCN1CC(=O)N(C)[C@H]2C/C=C\CCN(C2=O)[C@@H](Cc2ccc(C)cc2)C(=O)N(C)CC(=O)N[C@@H](CCc2cc(F)c(C(F)(F)F)c(F)c2)C(=O)N2C[C@H](OCC)C[C@H]2C(=O)NC2(CC(C)(C)C2)C(=O)N(C)[C@@H](C2CCCC2)C(=O)N(C)[C@H](C(=O)N(C)C)CC(=O)N(C)[C@@H](CCC)C(=O)N[C@@H]([C@@H](C)CC)C1=O [PP2095] | A (a compound having 10 or more and less than 20 is denoted as A) | 5.7 nM | A (a compound having 10 or more and less than 20 is denoted as A) |  |  |  | 
2 | CCCN1C(=O)[C@@H]2CCN2C(=O)[C@H](C)N(C)C(=O)[C@H]([C@@H](C)CC)NC(=O)[C@H](CC(C)C)N(C)C(=O)C[C@@H](C(=O)N(C)C)NC(=O)[C@H](C2CCCC2)N(C)C(=O)C2(CCCC2)NC(=O)[C@@H]2CC(F)(F)CN2C(=O)[C@H](CCc2ccc(C(F)(F)F)c(Cl)c2)NC(=O)CN(C)C(=O)[C@@H]1Cc1ccc(C(F)(F)F)cc1 [PP0381] ([NMeL]I[NMeA][Aze][NPrPhe(4-CF3)][Sar][hPhe(3-Cl-4-CF3)][Pro(4,4-F2)][Ac5c][NMeGly(cPent)]D-NMe2; lactam N-11) |  | 11.1 nM |  | B (a compound having 3 or more and less than 10 is denoted as B) | C (A compound having a KD ratio of 0.1 or more and less than 3 is denoted as C) |  | 
3 | CCCN1C(=O)CN(C)C(=O)CN(C)C(=O)[C@H]([C@@H](C)CC)NC(=O)[C@H](CC(C)C)N(C)C(=O)C[C@@H](C(=O)N(C)C)N(C)C(=O)[C@H](C2CCCC2)N(C)C(=O)C2(CCCC2)NC(=O)[C@@H]2CCCN2C(=O)[C@H](CCc2ccc(C(F)(F)F)c(Cl)c2)NC(=O)CN(C)C(=O)[C@@H]1Cc1ccc(C(F)(F)F)cc1 [PP0169] ([NMeL]I[Sar][Sar][NPrPhe(4-CF3)][Sar][hPhe(3-Cl-4-CF3)]P[Ac5c][NMeGly(cPent)][NMeD]-NMe2; lactam N-11) |  | 2.3 nM |  | B (a compound having 3 or more and less than 10 is denoted as B) | B (a compound having 3 or more and less than 10 is denoted as B) |  | 
4 | CCCN1C(=O)CN(C)C(=O)CNC(=O)[C@H]([C@@H](C)CC)NC(=O)[C@H](CC(C)C)N(C)C(=O)C[C@@H](C(=O)N2CCOCC2)NC(=O)[C@H](C2CCCC2)N(C)C(=O)C2(CCCC2)NC(=O)[C@@H]2C[C@@H](OCC)CN2C(=O)[C@H](CCc2ccc(C(F)(F)F)c(Cl)c2)NC(=O)CN(C)C(=O)[C@@H]1Cc1ccc(C(F)(F)F)cc1 [PP0329] ([NMeL]IG[Sar][NPrPhe(4-CF3)][Sar][hPhe(3-Cl-4-CF3)][Hyp](Et)[Ac5c][NMeGly(cPent)]D-Morpholide; lactam N-11) |  | 65.8 nM |  | C (A compound having a KD ratio of 0.1 or more and less than 3 is denoted as C) | B (a compound having 3 or more and less than 10 is denoted as B) |  | 
5 | CCCOC[C@H]1C(=O)N[C@@H]([C@@H](C)CC)C(=O)N(C)CC(=O)N(C)[C@H]2C/C=C\CCN(C2=O)[C@@H](Cc2ccc(C(F)(F)F)cc2)C(=O)N(C)CC(=O)N[C@@H](CCc2ccc(C(F)(F)F)c(OC)c2)C(=O)N2C[C@@H](C)C[C@H]2C(=O)NC2(CC(C)(C)C2)C(=O)N(C)[C@@H](C2CCCC2)C(=O)N(C)[C@H](C(=O)N(C)CC)CC(=O)N1C [PP1995] | B (a compound having 3 or more and less than 10 is denoted as B) | 17.8 nM | A (a compound having 10 or more and less than 20 is denoted as A) |  |  |  | 
6 | CCCN(C)C(=O)[C@@H]1CC(=O)N(C)[C@@H](C)C(=O)N[C@@H]([C@@H](C)CC)C(=O)N(C)CC(=O)N(C)[C@H]2C/C=C\CCN(C2=O)[C@@H](Cc2ccc(C(F)(F)F)cc2)C(=O)N(C)CC(=O)N[C@@H](CCc2cc(F)c(C(F)(F)F)c(F)c2)C(=O)N2C[C@H](OCC)C[C@H]2C(=O)NC2(CC(F)(F)C2)C(=O)N(C)[C@@H](C2CCCC2)C(=O)N1C [PP1731] |  | 7.4 nM |  |  |  | A (a compound having 10 or more and less than 20 is denoted as A) | A (a compound having 10 or more and less than 20 is denoted as A)
7 | CC[C@H](C)[C@@H]1NC(=O)[C@H](CC(C)C)N(C)C(=O)C[C@@H](C(=O)N2CCOCC2)N(C)C(=O)[C@H](CC(C)C)N(C)C(=O)C2(CCCC2)NC(=O)[C@@H]2CCCN2C(=O)[C@H](CCc2ccc(C(F)(F)F)c(Cl)c2)NC(=O)CN(C)C(=O)[C@H](Cc2ccc(C)cc2)N(CC)C(=O)[C@@H]2CCN2C(=O)[C@H](C)N(C)C1=O [PP0016] ([NMeL]I[NMeA][Aze][NEtPhe(4-Me)][Sar][hPhe(3-Cl-4-CF3)]P[Ac5c][NMeL][NMeD]-Morpholide; lactam N-11) |  | 24.6 nM |  | C (A compound having a KD ratio of 0.1 or more and less than 3 is denoted as C) | C (A compound having a KD ratio of 0.1 or more and less than 3 is denoted as C) |  | 
8 | CCCN1C(=O)CN(C)C(=O)CN(CC)C(=O)[C@H]([C@@H](C)CC)NC(=O)[C@H](CC(C)C)N(C)C(=O)C[C@@H](C(=O)N2CCOCC2)N(C)C(=O)[C@H](C2CCCC2)N(C)C(=O)C2(CCCC2)NC(=O)CN(C)C(=O)[C@H](CCc2ccc(C(F)(F)F)c(Cl)c2)NC(=O)CN(C)C(=O)[C@@H]1Cc1ccc(C(F)(F)F)cc1 [PP0300] ([NMeL]I[NEtG][Sar][NPrPhe(4-CF3)][Sar][hPhe(3-Cl-4-CF3)][Sar][Ac5c][NMeGly(cPent)][NMeD]-Morpholide; lactam N-11) |  | 73.9 nM |  | C (A compound having a KD ratio of 0.1 or more and less than 3 is denoted as C) | B (a compound having 3 or more and less than 10 is denoted as B) |  | 
9 | CCCN1C(=O)CN(C)C(=O)CN(C)C(=O)[C@H]([C@@H](C)CC)NC(=O)[C@H](CC(C)C)N(C)C(=O)C[C@@H](C(=O)N(C)C)N(C)C(=O)[C@H](C2CCCC2)N(C)C(=O)[C@](C)(CC)NC(=O)[C@@H]2CCCN2C(=O)[C@H](CCc2cc(F)c(C(F)(F)F)c(F)c2)NC(=O)CN(C)C(=O)[C@@H]1Cc1ccc(C(F)(F)F)cc1 [PP0805] ([NMeL]I[Sar][Sar][NPrPhe(4-CF3)][Sar][hPhe(3,5-F2-4-CF3)]P[Iva][NMeGly(cPent)][NMeD]-NMe2; lactam N-11) |  | 10.3 nM |  | C (A compound having a KD ratio of 0.1 or more and less than 3 is denoted as C) | B (a compound having 3 or more and less than 10 is denoted as B) |  | 
10 | CCCN(C)C(=O)[C@@H]1CC(=O)N(C)[C@@H](CC(F)F)C(=O)N[C@@H]([C@@H](C)CC)C(=O)N(C)CC(=O)N(C)[C@H]2C/C=C\CCN(C2=O)[C@@H](Cc2ccc(C(F)(F)F)cc2)C(=O)N(C)CC(=O)N[C@@H](CCc2cc(F)c(C(F)(F)F)c(F)c2)C(=O)N2C[C@@H](C)C[C@H]2C(=O)NC2(CC(C)(C)C2)C(=O)N(C)[C@@H](C2CCCC2)C(=O)N1C [PP2040] | A (a compound having 10 or more and less than 20 is denoted as A) | 10.5 nM | A (a compound having 10 or more and less than 20 is denoted as A) |  |  |  | 
11 | CCO[C@@H]1C[C@H]2C(=O)NC3(CC(C)(C)C3)C(=O)N(C)[C@@H](C(CC)CC)C(=O)N(C)[C@H](C(=O)N3CCCC3)CC(=O)N(C)[C@@H](COC)C(=O)N[C@@H]([C@@H](C)CC)C(=O)N(C)CC(=O)N(C)[C@H]3C/C=C\CCN(C3=O)[C@@H](Cc3ccc(C)cc3)C(=O)N(C)CC(=O)N[C@@H](CCc3ccc(C(F)(F)F)c(Cl)c3)C(=O)N2C1 [PP2144] | A (a compound having 10 or more and less than 20 is denoted as A) | 29 nM | AA (a compound having 20 or more is denoted as AA) |  |  |  | 
